Key:
[1] = tested on: human tripronuclear (3PN) zygotes; test: Live imaging of spindle assembly and chromosome segregation in human 3PN zygotes injected with KIFC1; format: cell-based; conditions: for multipolar / bipolar spindle assembly: human 3PN zygotes, FIG. 9, B to D
Description: Spindles in human fertilized eggs (zygotes) have also been reported to often be multipolar (6, 7, 122). […] The inventors thus tested if the introduction of exogenous KIFC1 increased the fidelity of spindle assembly and chromosome segregation in human zygotes, by using human tripronuclear (3PN) zygotes. Similar to the zygotes in (6, 7, 122), these zygotes frequently assembled multipolar spindles. […] Furthermore, introduction of mClover3-KIFC1 protein increased the frequency of zygotes with aligned chromosomes at anaphase onset from 20% to 57% (FIG. 9E), and the frequency of zygotes without lagging chromosomes during anaphase from 40% to 71% (FIG. 9F). Thus, introducing exogenous KIFC1 increased the efficiency of bipolar spindle assembly and reduced the risk of aneuploidy in human zygotes.
The use of human 3PN zygotes in this study was approved by the Ärztekammer Niedersachsen under the reference Bo/46/2020. Zygotes were collected from patients who underwent assisted reproduction treatment at Kinderwunschzentrum Göttingen and Fertility Center Berlin. All patients gave informed consent for their 3PN zygotes to be used in this study. For zygotes collected at Kinderwunschzentrum Göttingen, zygotes were cultured in G-1 PLUS medium (Vitrolife) under paraffin oil at 37° C. and 5% CO2. For zygotes collected at Fertility Center Berlin, zygotes were vitrified with Cryolock (FUJIFILM Irvine Scientific) using Vit Kit-Freeze (FUJIFILM Irvine Scientific). To maximize the survival and developmental rate of vitrified-thawed zygotes, zygotes were thawed in 1 ml of prewarmed G-MOPS PLUS (Vitrolife) containing 1 M D-(+)-trehalose (Sigma-Aldrich) at 37° C. for 1 min. Zygotes were then transferred to 300 μl of G-MOPS PLUS containing 0.5 M D-(+)-trehalose at room temperature for 3 min, 300 μl of G-MOPS PLUS containing 0.25 M D-(+)-trehalose at room temperature for 5 min, and 300 μl of G-MOPS PLUS at room temperature for 2 min. Recovered zygotes were cultured in G1-PLUS supplemented with 10% FBS under paraffin oil at 37° C. and 5% CO2. Staining and microinjection of human zygotes were performed as described above for human oocytes.

[2] = tested on: KIFC1/HSET-depleted aMTOC-free mouse oocytes; test: Rescue of spindle polarity in KIFC1/HSET-depleted aMTOC-free mouse oocytes (human oocyte mimics); format: cell-based
Description: This domain, together with the conserved, microtubule-binding motor domain, allows KIFC1/HSET to organize microtubules via crosslinking and/or sliding (86). To investigate the requirement of different domains in KIFC1/HSET, the inventors expressed a series of truncation mutants in aMTOC-free mouse oocytes (FIG. 7K). […] To examine whether the motor activity is dispensable for the function of KIFC1/HSET in aMTOC-free mouse oocytes, the inventors depleted endogenous KIFC1/HSET by follicle RNAi and restored expression with wild-type HSET or with HSET(N593K), which crosslinks microtubules but cannot slide (87). […] Together, the inventors infer that the appropriate level of KIFC1/HSET's crosslinking and sliding activities are required for proper bipolar spindle assembly in the absence of aMTOCs.
Mouse follicles were microinjected with 3.5 pl of siRNAs at a needle concentration of 2 μM as previously described (11). For rescue experiments, in vitro grown oocytes were microinjected with 3.5 pl of mRNAs. mClover3-HSET mRNA was microinjected at a needle concentration of 275 ng/μl, mClover3-HSET(N593K) mRNA at 275 ng/μl, mClover3-NUMA(S1955D) mRNA at 400 ng/μl, mClover3-NUMA(S1955A) mRNA at 400 ng/μl, mClover3-NUMA(SpM-4A) mRNA at 400 ng/μl, mClover3-NUMA(ΔMTBD1) mRNA at 400 ng/μl and mClover3-NUMA(ΔMTBD2) mRNA at 400 ng/μl. Oocytes were allowed to express the mRNAs for 3-4 h before release.
To obtain mouse MI spindles, oocytes were incubated at 37° C. for around 7 h after released into dbcAMP-free medium. To obtain porcine and bovine MI spindles, oocytes were incubated at 39° C./5% CO2 for around 11 and 12 h, respectively, after released into RO-3306-free medium. To obtain human MI spindles, oocytes were incubated at 37° C. for around 14 and 15 h after NEBD. None of the oocytes used for immunofluorescence analyses was subjected to live imaging before fixation.
Time-lapse movies of live mouse, bovine and porcine oocytes, and fixed human and mouse spindles were analyzed in 3D using Imaris (Bitplane). To determine the stages of meiosis and to score for spindle instability, the timing of meiotic progression was quantified relative to the timing of NEBD. NEBD was defined as the time point when the sharp boundary between the nucleus and cytoplasm disappeared in the differential interference contrast image (for mouse oocytes) or when the nucleus started collapsing in the H2B channel (for bovine and porcine oocytes). Spindle poles were defined as regions of MAP4 or MAP4-MTBD or α-tubulin intensity that prominently protruded from the main microtubule mass. In FIG. 1D, oocytes with bipolar spindle, in which ends of all microtubules converged at the poles, were scored as having focused poles. […] For mouse oocytes, unfocused poles were further classified into mildly unfocused poles (with partially separated microtubule ends) and severely unfocused poles (with fully separated microtubule ends). In FIG. 4D, bovine and porcine oocytes, in which the spindle maintained a barrel-shaped bipolar morphology and a detectable spindle axis, were scored as having stable spindle poles. Oocytes, in which the spindle lost their initial bipolarity and underwent dynamic remodeling of the pole(s) were scored as having unstable spindle poles. […] Oocytes, in which the spindle had more than two poles, were scored as having multipolar spindle. In FIG. 1H, mouse oocytes, in which the spindle had two well-defined poles, were scored as having bipolar spindle. Mouse oocytes, in which the spindle had two poorly defined poles, were scored as having apolar/round spindle. Mouse oocytes, in which the spindle had more than two poles, were scored as having multipolar spindle. […] Mouse oocytes, in which the spindle lost its barrel shape but contains several weakly associated microtubule bundles, were scored as having disorganized spindle.

In the case of “KIFC1/HSET: Recombinant mClover3-tagged human kinesin-14 KIFC1/HSET protein (SEQ ID NO: 1), expressed in 293 cells, microinjected into human oocytes and zygotes”, the “frequency of zygotes with aligned chromosomes at anaphase onset” value ([1]; KIFC1-injected human 3PN zygotes, non-injected 20%, FIG. 9E) was 57%, the “frequency of zygotes without lagging chromosomes during anaphase” value ([1]; KIFC1-injected human 3PN zygotes, non-injected 40%, FIG. 9F) was 71% and the “multipolar / bipolar spindle assembly” value [1] was “significantly reduces multipolar spindle assembly and/or promoted bipolar spindle assembly”. The “multipolar / bipolar spindle assembly” value ([1]; listed as mClover3-KIFC1) was “significantly reduced multipolar spindle assembly and promoted bipolar spindle assembly”, the “fold higher probability of having a bipolar spindle vs mimics without introduced KIFC1/HSET” value ([2]; FIG. 3H (left bar)) was 3.2 fold and the “difference in percentage of bipolar spindles” value ([2]; from around 30% to 96%) was 66%. The bipolar spindles ([2]; re-introduction of KIFC1/HSET (rescue experiment) in human oocyte mimics, without around 30%, FIG. 3H) was “around 96%”.

— US20250146022A1, “STABILISING THE HUMAN SPINDLE BY KIFC1/HSET” (MAX-PLANCK-GESELLSCHAFT ZUR FOERDERUNG DER WISSENSCHAFTEN …, priority 2021, published 2025)
